Earlier results in paper PMC12238501 (Scientific Reports, 2025).

Oc1ccc(C=Cc2cc(O)cc(O)c2)cc1 [Resveratrol, 3,4’,5-trihydroxystilbene]
Solubility in water: low solubility in water
